Experimental data as given in ChEMBL document CHEMBL1201862, “PubChem BioAssay data set” (2004).
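All cell lines were grown in 96-well plates and treated with compound for 48 hours. GI50: concentration for 50% inhibition of growth.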 Calls of active or inactive are those of the source. No stated cut-off is given here; in the data, active = GI50 up to about 1.1 µM and inactive = higher.

What was measured:
Assay in all cases: NCI anticancer screen, dose series, 48 h
SK-OV-3 = tested on: SK-OV-3
SF-539 = tested on: SF-539
SF-268 = tested on: SF-268
TK-10 = tested on: TK-10
NCI-H23 = tested on: NCI-H23
U-251 = tested on: U-251
RPMI-8226 = tested on: RPMI-8226
CCRF-CEM = tested on: CCRF-CEM
ACHN = tested on: ACHN
MOLT-4 = tested on: MOLT-4
HT-29 = tested on: HT-29
786-0 = tested on: 786-0
HOP-92 = tested on: HOP-92
SK-MEL-5 = tested on: SK-MEL-5
NCI-H226 = tested on: NCI-H226
A498 = tested on: A498
SR = tested on: SR

Row | Structure (SMILES) | GI50 (SK-OV-3) | GI50 (SF-539) | GI50 (SF-268) | GI50 (TK-10) | GI50 (NCI-H23) | GI50 (U-251) | GI50 (RPMI-8226) | GI50 (CCRF-CEM) | GI50 (ACHN) | GI50 (MOLT-4) | GI50 (HT-29) | GI50 (786-0) | GI50 (HOP-92) | GI50 (SK-MEL-5) | GI50 (NCI-H226) | GI50 (A498) | GI50 (SR)
1 | CCC1C(=O)OCc2c1cc1n(c2=O)C(CC)c2c-1nc1ccccc1c2Cl (stereo not drawn) | 33.9 µM (inactive) | 17.3 µM (inactive) | 23.9 µM (inactive) | 40.9 µM (inactive) | 25.6 µM (inactive) | 19.3 µM (inactive) | 13.2 µM (inactive) | 11.6 µM (inactive) | 27.4 µM (inactive) | 10.4 µM (inactive) | 24.1 µM (inactive) | 15.7 µM (inactive) | 26.9 µM (inactive) | 16.7 µM (inactive) | 29.1 µM (inactive) | 21.9 µM (inactive) | –
2 | CCOc1ccc(NC(=O)CC2SC(N)=NC2=O)cc1 (stereo not drawn) | – | – | > 100 µM (inactive) | > 100 µM (inactive) | > 100 µM (inactive) | > 100 µM (inactive) | > 100 µM (inactive) | > 100 µM (inactive) | > 100 µM (inactive) | > 100 µM (inactive) | > 100 µM (inactive) | > 100 µM (inactive) | 55.8 µM (inactive) | > 100 µM (inactive) | > 100 µM (inactive) | – | –
3 | C[N+](C)(C)C.FC(F)(F)C1(C(F)(F)F)O[SiH-]2(OC(C(F)(F)F)(C(F)(F)F)c3ccccc32)c2ccccc21 | – | 11.9 µM (inactive) | – | 16.9 µM (inactive) | 11 µM (inactive) | 5.4 µM (inactive) | 16.4 µM (inactive) | – | 22.8 µM (inactive) | 11.7 µM (inactive) | 11.2 µM (inactive) | 16.7 µM (inactive) | – | – | 4.86 µM (inactive) | – | 14.5 µM (inactive)
4 | COc1cc([C@@H]2c3cc4c(cc3[C@@H](NC(=O)c3ccc(C(C)=O)cc3)C3COC(=O)[C@@H]32)OCO4)cc(OC)c1O (stereo partly drawn) | 1.56 µM (inactive) | 0.316 µM (active) | 1.09 µM (active) | 5.81 µM (inactive) | 0.264 µM (active) | 0.0743 µM (active) | 0.877 µM (active) | 0.0849 µM (active) | 0.189 µM (active) | < 0.01 µM (active) | 1.5 µM (inactive) | 0.327 µM (active) | 1.19 µM (inactive) | 1.46 µM (inactive) | 0.159 µM (active) | 1.66 µM (inactive) | –
5 | COc1ccc(OC(C(=O)O)C(C)C)c2c1CCCC2=O (stereo not drawn) | > 100 µM (inactive) | > 100 µM (inactive) | > 100 µM (inactive) | > 100 µM (inactive) | > 100 µM (inactive) | > 100 µM (inactive) | > 100 µM (inactive) | > 100 µM (inactive) | > 100 µM (inactive) | > 100 µM (inactive) | > 100 µM (inactive) | > 100 µM (inactive) | – | > 100 µM (inactive) | – | > 100 µM (inactive) | –
6 | CC1=C2O[B-](c3ccccc3)(c3ccccc3)[O+]=C2C=CN1 | > 100 µM (inactive) | – | – | 22.6 µM (inactive) | 36.6 µM (inactive) | 55.6 µM (inactive) | 28.3 µM (inactive) | 34.8 µM (inactive) | 27.9 µM (inactive) | 20.2 µM (inactive) | 54.7 µM (inactive) | 46.2 µM (inactive) | 22.1 µM (inactive) | 21.5 µM (inactive) | – | – | –
7 | CN(Cc1ccccc1)C(=NC#N)N(C)Cc1ccccc1 | > 100 µM (inactive) | > 100 µM (inactive) | > 100 µM (inactive) | > 100 µM (inactive) | > 100 µM (inactive) | > 100 µM (inactive) | – | – | > 100 µM (inactive) | – | > 100 µM (inactive) | > 100 µM (inactive) | > 100 µM (inactive) | > 100 µM (inactive) | – | – | –
8 | O=C1NC(=O)C2C(=O)NC(=O)C1C2(c1ccccc1)c1ccc(Cl)cc1 (stereo not drawn) | > 100 µM (inactive) | > 100 µM (inactive) | > 100 µM (inactive) | > 100 µM (inactive) | > 100 µM (inactive) | – | > 100 µM (inactive) | > 100 µM (inactive) | > 100 µM (inactive) | > 100 µM (inactive) | > 100 µM (inactive) | > 100 µM (inactive) | > 100 µM (inactive) | > 100 µM (inactive) | > 100 µM (inactive) | > 100 µM (inactive) | –
9 | CN(/N=C/c1cccc2cccnc12)c1ccccc1 | > 100 µM (inactive) | 37.2 µM (inactive) | > 100 µM (inactive) | 71.1 µM (inactive) | 59.8 µM (inactive) | > 100 µM (inactive) | > 100 µM (inactive) | > 100 µM (inactive) | 99.5 µM (inactive) | > 100 µM (inactive) | 44.2 µM (inactive) | 55.3 µM (inactive) | 51.9 µM (inactive) | > 100 µM (inactive) | > 100 µM (inactive) | > 100 µM (inactive) | –
10 | NC12CC3CC(C1)CC(Cl)(C3)C2 | > 100 µM (inactive) | > 100 µM (inactive) | – | > 100 µM (inactive) | > 100 µM (inactive) | > 100 µM (inactive) | > 100 µM (inactive) | > 100 µM (inactive) | > 100 µM (inactive) | > 100 µM (inactive) | > 100 µM (inactive) | > 100 µM (inactive) | > 100 µM (inactive) | – | – | > 100 µM (inactive) | –
11 | Cc1ccc(S(=O)(=O)NCC2CCCCC2=O)cc1 (stereo not drawn) | > 100 µM (inactive) | > 100 µM (inactive) | 70 µM (inactive) | > 100 µM (inactive) | > 100 µM (inactive) | > 100 µM (inactive) | 40.8 µM (inactive) | > 100 µM (inactive) | – | 49.7 µM (inactive) | 10.2 µM (inactive) | > 100 µM (inactive) | 24.2 µM (inactive) | 82.4 µM (inactive) | > 100 µM (inactive) | > 100 µM (inactive) | –
12 | COc1ccc2c(c1)[n+]([O-])c(-c1c(Cl)cccc1Cl)c(N)[n+]2[O-] | > 100 µM (inactive) | – | 40.6 µM (inactive) | > 100 µM (inactive) | 25.1 µM (inactive) | 37.9 µM (inactive) | 80.4 µM (inactive) | 57.7 µM (inactive) | 62.4 µM (inactive) | 75.3 µM (inactive) | 55.5 µM (inactive) | 56.5 µM (inactive) | 45.6 µM (inactive) | 22.9 µM (inactive) | 79.6 µM (inactive) | > 100 µM (inactive) | –
13 | CCOC(=O)C1=C(N)N(c2ccccc2)/C(=C(/C#N)c2nc3ccccc3[nH]2)S1 | > 100 µM (inactive) | > 100 µM (inactive) | 80.9 µM (inactive) | > 100 µM (inactive) | > 100 µM (inactive) | > 100 µM (inactive) | – | > 100 µM (inactive) | > 100 µM (inactive) | > 100 µM (inactive) | > 100 µM (inactive) | > 100 µM (inactive) | > 100 µM (inactive) | > 100 µM (inactive) | > 100 µM (inactive) | > 100 µM (inactive) | –
14 | C=C1C(=O)C23C(O)CC4C5(C)CCCC4(C(O)OC5)C2C(OC(C)=O)CC1C3O (stereo not drawn) | 19.7 µM (inactive) | 10.9 µM (inactive) | 13.3 µM (inactive) | 10.9 µM (inactive) | 5.41 µM (inactive) | 16.6 µM (inactive) | 3.64 µM (inactive) | 1.88 µM (inactive) | 12.2 µM (inactive) | 3.66 µM (inactive) | 5 µM (inactive) | 6.31 µM (inactive) | 3.52 µM (inactive) | 14.8 µM (inactive) | 19.5 µM (inactive) | – | 3.01 µM (inactive)
